Measurements reported in patent US11505548B2, “Heterocyclic compounds and their use for treatment of helminthic infections and diseases” (Celgene Corporation, priority 2019, dated 2022).
Read-outs that look alike come from different tables or passages of the source.

Tested on: Onchocerca gutturosa Adult Male Worms
Test: Onchocerciasis in vitro screening model, worm motility score
Assay type: cell-based
Settings: read-out: O. gutturosa activity level (IC50 or MED)
[1] = Onchocerca gutturosa, Table 1 O. gutturosa, levels A/B/C, motility or MTT readout not specified
[2] = in vitro, Onchocerca gutturosa adult male worms, class A/B/C

Cc1cccnc1Nc1nc(-c2ccc(OC3CC4(C3)CN(C3CC3)C4)cn2)ns1 [Compound 82, 3-(5-(2-cyclo-propyl-2-azaspiro[3.3]heptan-6-yloxy)pyridin-2-yl)-N-(3-methylpyridin-2-yl)-1,2,4-thiadiazol-5-amine]
IC50 [1]: 200 to 500 nM

CC(=O)N(C)c1cc(C(F)(F)F)cnc1Nc1nc(-c2ccc(OC3COC3)cn2)ns1 [Compound 329, N-methyl-N-(2-(3-(5-(oxetan-3-yloxy)pyridin-2-yl)-1,2,4-thiadiazol-5-ylamino)-5-(trifluoromethyl)pyridin-3-yl)acetamide]
IC50 [2]: 500 to 5000 nM

COC(=O)c1cccnc1Nc1nc(-c2ccc(OC(C)C)cn2)ns1 [Compound 276, methyl 2-(3-(5-isopropoxy-pyridin-2-yl)-1,2,4-thiadiazol-5-ylamino) nicotinate]
IC50 [2]: 500 to 5000 nM

Cc1cccnc1Nc1nc(-c2ccc(C(=O)N3CCCC3)cn2)ns1 [Compound 61, (6-(5-(3-methyl-pyridin-2-ylamino)-1,2,4-thiadiazol-3-yl)pyridin-3-yl) (pyrrolidin-1-yl)methanone]
IC50 [1]: 200 to 500 nM

CC(C)Oc1ccc(-c2n[nH]c(Nc3ncccc3C(F)(F)F)n2)nc1 [Compound 70, N-(3-(5-isopropoxy-pyridin-2-yl)-1H-1,2,4-triazol-5-yl)-3-(trifluoromethyl) pyridin-2-amine]
IC50 [1]: 500 to 5000 nM

COc1ccnc(-c2nsc(Nc3cc(C(F)(F)F)c(C(C)C)cn3)n2)c1 [Compound 182, N-(5-iso-propyl-4-(trifluoro-methyl)pyridin-2-yl)-3-(4-methoxy-pyridin-2-yl)-1,2,4-thiadiazol-5-amine]
IC50 [1]: 200 to 500 nM

CC(C)c1cccnc1Nc1nc(-c2ccc(O[C@@H]3CCN(C4CC4)C[C@H]3F)cn2)ns1 [Compound 90, 3-(5-((3R,4R)-1-cyclopropyl-3-fluoro-piperidin-4-yloxy)pyridin-2-yl)-N-(3-isopropylpyridin-2-yl)-1,2,4-thiadiazol-5-amine]
IC50 [1]: < 200 nM

CNc1cccnc1N(C)c1nc(-c2ccc(OC(C)C)cn2)ns1 [Compound 159, N2-(3-(5-isopropoxy-pyridin-2-yl)-1,2,4-thiadiazol-5-yl)-N2,N3-dimethyl-pyridine-2,3-diamine]
IC50 [1]: 500 to 5000 nM

FC(F)(F)c1ccc(Nc2nc(-c3cc(OC4CCCCC4)ccn3)ns2)nc1 [Compound 213, 3-(4-(cyclo-hexyloxy)pyridin-2-yl)-N-(5-(trifluoromethyl)pyridin-2-yl)-1,2,4-thiadiazol-5-amine]
IC50 [2]: < 200 nM

CN1CCC(S(=O)(=O)c2ccc(-c3nsc(Nc4ncccc4N(C)C)n3)nc2)CC1 [Compound 142, N3,N3-dimethyl-N2-(3-(5-(1-methylpiperidin-4-ylsulfonyl)pyridin-2-yl)-1,2,4-thiadiazol-5-yl)pyridine-2,3-diamine]
IC50 [1]: 500 to 5000 nM

CC(C)Oc1cnc(-c2nnc(Nc3ncccc3N(C)C)o2)cc1C(F)(F)F [Compound 160, N2-(5-(5-isopropoxy-4-(trifluoromethyl)pyridin-2-yl)-1,3,4-oxadiazol-2-yl)-N3,N3-dimethyl-pyridine-2,3-diamine]
IC50 [1]: 500 to 5000 nM

CN1Cc2ccnc(-c3nsc(Nc4ncccc4N(C)C)n3)c2C1 [Compound 163, N3,N3-dimethyl-N2-(3-(2-methyl-2,3-dihydro-1H-pyrrolo[3,4-c]pyridin-4-yl)-1,2,4-thia-diazol-5-yl)pyridine-2,3-diamine]
IC50 [1]: < 200 nM

CC(C)c1ccnc(-c2nsc(Nc3ncccc3C(F)(F)F)n2)c1 [Compound 67, 3-(4-isopropyl-pyridin-2-yl)-N-(3-(trifluoromethyl)pyridin-2-yl)-1,2,4-thiadiazol-5-amine]
IC50 [1]: < 200 nM

COc1ccnc(-c2nsc(Nc3ncc(C(F)(F)F)cc3N(C)C(C)=O)n2)c1 [Compound 318, N-(2-(3-(4-methoxypyridin-2-yl)-1,2,4-thiadiazol-5-ylamino)-5-(trifluoromethyl)pyridin-3-yl)-N-methylacetamide]
IC50 [2]: < 200 nM

Cc1cccnc1Nc1nc(-c2ccc(S(=O)(=O)N(C)C)cn2)ns1 [Compound 31, N,N-dimethyl-6-(5-(3-methylpyridin-2-ylamino)-1,2,4-thiadiazol-3-yl)pyridine-3-sulfonamide]
IC50 [1]: 500 to 5000 nM

CC(=O)N(C)c1cccnc1Nc1nc(-c2cc(C(F)F)c(OC(C)C)cn2)ns1 [Compound 261, N-(2-(3-(4-(difluoromethyl)-5-isopropoxy-pyridin-2-yl)-1,2,4-thiadiazol-5-ylamino)pyridin-3-yl)-N-methylacetamide]
IC50 [2]: 500 to 5000 nM

c1ccc(-c2nsc(Nc3ccc(OC4CCNCC4)cn3)n2)nc1 [Cmpd 10, N-(5-(piperidin-4-yloxy)pyridin-2-yl)-3-(pyridin-2-yl)-1,2,4-thiadiazol-5-amine]
IC50 [1]: 500 to 5000 nM

CNc1nccnc1Nc1nc(-c2cc3ccn(C(C)C)c3cn2)ns1 [Compound 303, N2-(3-(1-isopropyl-1H-pyrrolo[2,3-c]pyridin-5-yl)-1,2,4-thiadiazol-5-yl)-N3-methylpyrazine-2,3-diamine]
IC50 [2]: < 200 nM

CC(C)Oc1ccnc(-c2nsc(Nc3ncccc3S(=O)(=O)N(C)C)n2)c1 [Compound 308, 2-(3-(4-isoprop-oxypyridin-2-yl)-1,2,4-thiadiazol-5-ylamino)-N,N-dimethyl-pyridine-3-sulfonamide]
IC50 [2]: < 200 nM

CC(=O)N(C)c1cccnc1Nc1nc(-c2cc3c(cn2)CN(C(C)C)C3)ns1 [Compound 310, N-(2-(3-(2-isopropyl-2,3-dihydro-1H-pyrrolo[3,4-c]pyridin-6-yl)-1,2,4-thiadiazol-5-ylamino)pyridin-3-yl)-N-methylacetamide]
IC50 [2]: 500 to 5000 nM

CC(C)Oc1ccc(-c2nsc(Nc3ncccc3N(C)C(=O)C(C)C)n2)nc1 [Compound 169, N-(2-(3-(5-isopropoxy-pyridin-2-yl)-1,2,4-thiadiazol-5-ylamino)pyridin-3-yl)-N-methyliso-butyramide]
IC50 [1]: 200 to 500 nM

CN(C)c1cccnc1Nc1nc(-c2ncccc2OC2CC2)ns1 [Compound 117, N2-(3-(3-cycloprop-oxypyridin-2-yl)-1,2,4-thiadiazol-5-yl)-N3,N3-dimethyl-pyridine-2,3-diamine]
IC50 [1]: 200 to 500 nM

CC(C)Oc1cnc(-c2nsc(Nc3ncccc3C(=O)N(C)C)n2)cc1C(F)(F)F [Compound 225, 2-(3-(5-isopropoxy-4-(trifluoromethyl)pyridin-2-yl)-1,2,4-thiadiazol-5-ylamino)-N,N-dimethyl-nicotinamide]
IC50 [2]: 500 to 5000 nM

Cc1cccnc1Nc1nc(-c2cc(C(=O)N(C)C)ccn2)ns1 [Compound 22, N,N-dimethyl-2-(5-(3-methylpyridin-2-ylamino)-1,2,4-thiadiazol-3-yl)isonicotinamide]
IC50 [1]: 500 to 5000 nM

CC(=O)N(C)c1cnc(Nc2nc(-c3ccc(OC(C)C)cn3)ns2)c(C(F)(F)F)c1 [Compound 300, N-(6-(3-(5-isopropoxypyridin-2-yl)-1,2,4-thiadiazol-5-ylamino)-5-(trifluoromethyl)pyridin-3-yl)-N-methylacetamide]
IC50 [2]: 500 to 5000 nM

Cc1cccnc1Nc1nc(-c2ccc(OC3CC4(CCN(C)C4)C3)cn2)ns1 (stereo not shown) [Compound 77, 3-(5-(6-methyl-6-azaspiro [3.4]octan-2-yloxy)pyridin-2-yl)-N-(3-methylpyridin-2-yl)-1,2,4-thiadiazol-5-amine]
IC50 [1]: 500 to 5000 nM

Cc1ccnc(Nc2nnc(-c3ncccc3C)[nH]2)c1 [Compound 242, 4-methyl-N-(5-(3-methyl-pyridin-2-yl)-4H-1,2,4-triazol-3-yl)pyridin-2-amine]
IC50 [2]: 500 to 5000 nM

Cc1cccnc1Nc1nc(-c2ccc(C(=O)N3CCOCC3)cn2)ns1 [Compound 58, (6-(5-(3-methyl-pyridin-2-ylamino)-1,2,4-thiadiazol-3-yl)pyridin-3-yl)(morpholino) methanone]
IC50 [1]: 200 to 500 nM

COc1ccc(Nc2nnc(-c3cc(OC(C)C)ccn3)o2)nc1 [Compound 212, 5-(4-isoprop-oxypyridin-2-yl)-N-(5-methoxy-pyridin-2-yl)-1,3,4-oxadiazol-2-amine]
IC50 [2]: 500 to 5000 nM

Cc1cccnc1Nc1nc(-c2ccc(OC3CCN(C(=O)C(C)C)CC3)cn2)ns1 [Compound 265, 2-methyl-1-(4-(6-(5-(3-methylpyridin-2-ylamino)-1,2,4-thiadiazol-3-yl)pyridin-3-yloxy)piperidin-1-yl)propan-1-one]
IC50 [2]: 500 to 5000 nM

Cc1cccnc1Nc1nc(-c2ccc(C(=O)N(C)C)cn2)no1 [Compound 277, N,N-dimethyl-6-(5-(3-methylpyridin-2-ylamino)-1,2,4-oxadiazol-3-yl)nicotinamide]
IC50 [2]: 500 to 5000 nM

CC(C)Oc1cc(-c2nsc(Nc3ncccc3N(C)C)n2)ncc1C(F)(F)F [Compound 147, N2-(3-(4-isoprop-oxy-5-(trifluoromethyl)pyridin-2-yl)-1,2,4-thiadiazol-5-yl)-N3,N3-dimethyl-pyridine-2,3-diamine]
IC50 [1]: 500 to 5000 nM

CN1CCc2cc(-c3nsc(Nc4ncccc4S(=O)(=O)N(C)C)n3)ncc21 [Compound 307, N,N-dimethyl-2-(3-(1-methyl-2,3-dihydro-1H-pyrrolo[2,3-c]pyridin-5-yl)-1,2,4-thiadiazol-5-ylamino) pyridine-3-sulfonamide]
IC50 [2]: 500 to 5000 nM

COc1ccc(-c2nnc(Nc3cc(OC(C)C)ccn3)s2)nc1 [Compound 243, N-(4-isoprop-oxypyridin-2-yl)-5-(5-methoxy-pyridin-2-yl)-1,3,4-thiadiazol-2-amine]
IC50 [2]: 500 to 5000 nM

Cc1cccnc1Nc1nc(-c2cc(OC3CC3)ccn2)ns1 [Compound 65, 3-(4-cycloprop-oxypyridin-2-yl)-N-(3-methyl-pyridin-2-yl)-1,2,4-thiadiazol-5-amine]
IC50 [1]: 500 to 5000 nM

CC(C)c1cccnc1Nc1nc(-c2ccc(OC(F)F)cn2)ns1 [Compound 127, 3-(5-(difluoro-methoxy)pyridin-2-yl)-N-(3-isopropyl-pyridin-2-yl)-1,2,4-thiadiazol-5-amine]
IC50 [1]: < 200 nM

Cc1ccnc(Nc2nsc(-c3ncccc3C)n2)c1 [Compound 305, 5-(3-methyl-pyridin-2-yl)-N-(4-methylpyridin-2-yl)-1,2,4-thiadiazol-3-amine]
IC50 [2]: < 200 nM
